US9399145B2, “Nanoscale neuromodulating platform for retina neuron activation apparatus and method” (The Board of Trustees of the University of Illinois, priority 2005, dated 2016)

Key:
[1] = biological target: T1, α1β2γ2 GABAARs (rat α1, rat β2 and human γ2S) (UniProt P18507+P62813+P63138); assay: Two-electrode voltage clamp of α1β2γ2 GABAAR-expressing Xenopus oocytes; type: cell-based; details: for rate constant 1/τ of UV-induced decrease in membrane current (de-potentiation): 3 μM GABA and 1 μM MPC088
T1 construct: expressed in transfected cells; host or cells: Xenopus laevis oocytes
Description: Purple and gray bars indicate periods of presentation of UV light (purple) and high-intensity visible light (High-Vis) (gray), respectively. […] These amplitude determination conditions are denoted by numbers beneath the waveform in FIG. 35d.
In each of the MPC088 experiments, the cis-dominant form was generated by UV light during static bathing. […] Numbers beneath the waveform in FIG. 2(c) denote amplitude determination conditions for that experiment.
Oocytes expressing α1β2γ2 receptors (rat α1, rat β2 and human γ2S) were prepared and studied by two-electrode voltage-clamp recording^58 (holding potential: −70 mV; amplifier: GeneClamp500B; Axon Instruments, Foster City, Calif.). Unless otherwise indicated, oocytes were superfused with Ringer solution (physiological saline) at a rate of ˜1 mL/min. The experiments of FIGS. 35d-e, 36c-e and 47 involved periods of static bathing, i.e., halted superfusion. The γ2(A79C) subunit was prepared by site-directed mutagenesis. Oocyte electrophysiological experiments were carried out in room light. A UV light-emitting diode (peak wavelength: 365 nm; Hamamatsu Photonics, Japan) and a microscope illuminator (white light; Schott Fostec, Auburn, N.Y.) provided UV and visible stimulating light. As measured at the position of the oocyte, the intensity of the UV light at 365 nm was 220 μW/mm^2. At 440 nm, the nominal strength of the visible (white) light (referred to as high-intensity visible light) was 28 μW/mm^2, and that of the ambient room illumination was 0.045 μW/mm^2. In all experiments, low-intensity visible light from the microscope illuminator (3 μW/mm^2 at 440 nm) was present at all times except those involving high-intensity visible illumination. Electrophysiological data were obtained using Clampex 8.2 (Axon Instruments), analyzed using Clampfit 10.0 (Axon Instruments) and OriginPro7.5 (OriginLab, Northampton, Mass.). All statistical analysis employed a two-sample t-test.

[2] = system: Purkinje neurons (PNs) of the cerebellar slice; assay: Whole-cell current clamp of Purkinje neurons, action potential firing; type: cell-based, mouse
Procedure: The effects of MPC088 on action potential firing in PNs of the cerebellar slice were also examined. These experiments were similar to those, except that the cells were recorded under current-clamp in order to allow the cell to spike. […] Representative data was obtained by whole-cell current-clamp recording from a PN which was injected with 468 pA to elicit a high-frequency train of action potentials. […] The cell was then exposed for 1-s durations to UV light (UV1), then blue light, and then again with UV (UV2). […] Below this trace is plotted the instantaneous firing frequency vs. time; the dashed line reflects the average firing frequency during the 1-s epoch that preceded the first UV exposure (FIG. 41a). FIG. 41b depicts a summary of results from experiments of the type shown in a. Average spike frequencies were obtained for each cell in each of five 1-s epochs, then normalized to the pre-GABA/MPC088 firing frequency (n=8 cells from 4 animals). Error bars here and in c represent the SEM. Repeated-measures ANOVA on the aggregate data yielded F(3,21)=10.213, p<0.001. […] Significance was determined from post-hoc paired-sample t-tests corrected for multiple comparisons, which yielded p<0.02. […]
To further address whether MPC088 has non-specific effects on excitability, the spikes elicited in the experiment described in FIG. 41 were analyzed. […] Three action potential (AP) parameters were measured: peak amplitude, half width, and maximum rise slope. […] AP waveform parameters were calculated for pre-puff, blue light, and UV epochs. […]
For the voltage-clamp experiments of FIG. 40, each cell was […] between 1-6 trials of the drug application+light flash protocol. […] A peri-stimulus time histogram (PSTH) was calculated for each trial using 250-ms time bins; these were averaged across trials to produce a PSTH for the experiment, using the software TaroTools (Dr. Taro Ishikawa, Jikei University School of Medicine, Tokyo, Japan) and Igor Pro 6.2 (WaveMetrics, Inc., Lake Oswego, Oreg.).

T1 sequence (P62813 28-455): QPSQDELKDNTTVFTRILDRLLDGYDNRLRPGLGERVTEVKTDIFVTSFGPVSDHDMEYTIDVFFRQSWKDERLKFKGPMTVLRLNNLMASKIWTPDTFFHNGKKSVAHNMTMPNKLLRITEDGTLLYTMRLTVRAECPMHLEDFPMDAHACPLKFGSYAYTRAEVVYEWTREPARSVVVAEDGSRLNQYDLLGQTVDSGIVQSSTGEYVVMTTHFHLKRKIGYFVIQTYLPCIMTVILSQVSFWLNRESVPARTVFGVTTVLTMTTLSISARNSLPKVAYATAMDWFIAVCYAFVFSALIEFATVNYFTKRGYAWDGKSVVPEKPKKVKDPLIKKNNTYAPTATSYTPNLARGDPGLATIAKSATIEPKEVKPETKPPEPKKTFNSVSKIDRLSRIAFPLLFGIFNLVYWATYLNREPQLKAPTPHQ
T1 sequence (P63138 25-474 limits assumed): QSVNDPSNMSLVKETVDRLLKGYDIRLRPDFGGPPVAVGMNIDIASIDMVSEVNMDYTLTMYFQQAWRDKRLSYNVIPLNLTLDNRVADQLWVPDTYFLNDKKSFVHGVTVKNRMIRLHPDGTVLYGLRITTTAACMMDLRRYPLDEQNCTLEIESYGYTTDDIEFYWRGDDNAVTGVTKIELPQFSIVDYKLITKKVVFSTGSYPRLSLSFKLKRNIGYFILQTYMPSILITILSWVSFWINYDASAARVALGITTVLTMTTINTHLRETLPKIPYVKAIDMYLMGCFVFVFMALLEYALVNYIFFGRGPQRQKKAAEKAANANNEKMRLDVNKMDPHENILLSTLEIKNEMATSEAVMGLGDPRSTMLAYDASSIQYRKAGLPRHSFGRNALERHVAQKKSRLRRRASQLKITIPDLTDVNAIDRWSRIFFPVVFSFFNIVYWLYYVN
T1 sequence (P18507 40-467 isoform P18507-1 limits assumed): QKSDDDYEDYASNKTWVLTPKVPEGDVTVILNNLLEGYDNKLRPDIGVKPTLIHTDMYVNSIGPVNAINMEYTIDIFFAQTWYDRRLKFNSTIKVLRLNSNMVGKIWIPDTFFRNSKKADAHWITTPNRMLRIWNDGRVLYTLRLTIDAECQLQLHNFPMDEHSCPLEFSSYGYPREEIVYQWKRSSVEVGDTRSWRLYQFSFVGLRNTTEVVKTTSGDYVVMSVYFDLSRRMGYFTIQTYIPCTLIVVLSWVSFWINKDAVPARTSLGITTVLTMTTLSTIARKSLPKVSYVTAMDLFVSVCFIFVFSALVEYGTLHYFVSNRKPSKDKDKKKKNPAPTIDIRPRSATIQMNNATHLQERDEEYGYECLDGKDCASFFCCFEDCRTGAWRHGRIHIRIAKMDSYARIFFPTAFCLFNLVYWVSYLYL

CC(C)c1cc(CCCC(=O)NCc2ccc(/N=N/c3ccc(C(=O)NCCN)cc3)cc2)cc(C(C)C)c1O [MPC088, (E)-N-(2-Aminoethyl)-4-((4-((4-(4-hydroxy-3,5-diisopropylphenyl)butanamido)methyl)phenyl)diazenyl)benzamide]
GABAAR potentiating and direct agonist activities relative to parent propofol [1]: more than an order of magnitude
rate constant 1/τ of UV-induced decrease in membrane current (de-potentiation) ([1]; 10-fold reduced UV intensity): 0.13 ± 0.02 s⁻¹
rate constant 1/τ of UV-induced decrease in membrane current (de-potentiation) ([1]; nominal UV intensity): 0.43 ± 0.09 s⁻¹
potentiation of the GABA response ([1]; co-applied 3 μM GABA, MPC088 1 μM, MPD021 10 or 100 μM, MPC100 10 μM): markedly potentiated the GABA response
maximum current of direct activation relative to the 100 μM GABA response ([1]; compound alone): comparable with the peak current elicited by 100 μM GABA
lowest concentration at which direct activation response is clearly evident ([1]; compound alone, no GABA): 4 µM
potency in direct activation relative to propofol ([1]; concentrations required for peak current equal to 40% of the 100 μM GABA-alone response): ~25 fold
firing rate produced by blue light relative to that produced by UV light ([2]; 10 μM GABA + 30 μM MPC088, UV-Blue-UV flashes): 52±14%
decrease of firing rate ([2]; 10 μM GABA + 30 μM trans-dominant MPC088): approximately 50%
effects on AP waveform ([2]; peak amplitude, half width, maximum rise slope): no detectable effects
